# In patent US12071648B2, “Ex vivo model of inflamed human skin and uses thereof for screening anti-inflammatory compounds” (GENOSKIN, priority 2017, dated 2024):
# Experiments:
# Format in all cases: cell-based, human
# [1] = tested on: psoriasin (S100A7); assay: Psoriasin detection by fluorescence microscopy in the Hypo-InflammaSkin model; settings: inflamed biopsy treated by subcutaneous injection of 50 nM, 7 days of ex vivo culture
# Experimental: (§1) In order to test the relevance of the model of inflamed skin obtained by the method of the invention (Hypo-InflammaSkin®), an antibody known for its anti-inflammatory effect was tested. This is the adalimumab anti-TNFα antibody. Biopsies of inflamed skin (Hypo-InflammaSkin®−I) with a thickness of 1 cm were obtained by the method of the invention. A subcutaneous injection (namely into the […]) of 50 nM adalimumab was performed at TO (prophylactic treatment, Hypo-InflammaSkin®−I+anti-TNFα−P) or after 3 days of ex vivo culture of the inflamed biopsy (therapeutic treatment, Hypo-InflammaSkin®−I+anti-TNFα−T). After 7 days of ex vivo culture, the culture media are taken, and skin biopsies are fixed in a 10% formalin solution and then embedded in paraffin blocks. Serial sections of a constant thickness of 5 μm of the biopsies are made. The morphological appearance of the skin biopsies is studied under optical microscopy using hematoxylin and eosin staining. The presence of psoriasin (S110A7) is identified by fluorescence microscopy (Leica DM 5000 microscope) using an anti-S100A7 antibody coupled to a fluorochrome. The cell nuclei are marked with DAPI. Biopsies of non-inflamed skin (HypoSkin®−biopsies including the epidermis, dermis, and hypodermis) are used for control.
# [2] = tested on: IL-22; assay: IL-22 secretion by the Hypo-InflammaSkin model
# Experimental: (§2) The cytokines IL-17A, IL-22, and IFNγ produced by the model were analyzed in the culture media by an ELISA assay using a specific detection kit from Meso Scale Discovery (U-PLEX TH17 Combo 2 Human Reference K15076K) and using a multiplex assay platform (MESO QuickPlex SQ 120).
# as §1, with “The cell nuclei are marked with DAPI. Biopsies of non-inflamed skin (HypoSkin®−biopsies including the epidermis, dermis, and hypodermis) are used for control.” left out
# [3] = tested on: ex vivo model of inflamed skin (Hypo-InflammaSkin); assay: Histology analysis (hematoxylin and eosin) of the Hypo-InflammaSkin model after subcutaneous injection
# Experimental: In a second embodiment, the hypodermis is preserved. The biopsies (epidermis, dermis, and hypodermis), the thickness of which is about 1 cm, are then cut out using a metal punch. This second embodiment is for testing anti-inflammatory compounds by subcutaneous injection.
# as §1, with “The cell nuclei are marked with DAPI. Biopsies of non-inflamed skin (HypoSkin®−biopsies including the epidermis, dermis, and hypodermis) are used for control.” left out
# [4] = tested on: IL-17A; assay: IL-17A secretion by the InflammaSkin ex vivo model of inflamed skin, ELISA of culture media
# Experimental: (§3) Using a clamp, the skin biopsy is held flat, with the dermis on top. A needle with no dead volume is inserted into the biopsy from the side of the dermis using a 701N or 705N Hamilton syringe (for 8 mm or 15 mm diameter biopsies, respectively). 10 μL or 35 μL of the activation solution (50 ng/μL anti-CD3 antibody, 50 ng/μL anti-CD28 antibody, and 10 ng/mL IL-2) for biopsies of 8 or 15 mm diameter, respectively, are injected from the side of the biopsy to avoid damage to the epidermis.
# (§4) In WILLIAM'S E synthetic culture medium, the following supplements are added: 10 ng/mL IL-1β, 50 ng/mL IL-23, and 10 ng/mL TGFbeta. The culture is carried out for 7 days in a CO2 incubator at 37° C. The culture medium containing the supplements is changed daily.
# as §2
# (§5) In order to test the relevance of the model of inflamed skin obtained by the method of the invention, compounds known for their anti-inflammatory effect were tested. These are betamethasone di-propionate and the PDE4 inhibitor. […]
# [5] = tested on: IL-22; assay: IL-22 secretion by the InflammaSkin ex vivo model of inflamed skin, ELISA of culture media
# Experimental: as §3, §4, §2, §5
# [6] = tested on: IFNγ; assay: IFNγ secretion by the InflammaSkin ex vivo model of inflamed skin, ELISA of culture media
# Experimental: as §3, §4, §2, §5
# [7] = tested on: ex vivo model of inflamed skin (InflammaSkin); assay: Histological analysis of the InflammaSkin model after topical treatment
# Experimental: as §3, §4
# The skin biopsy treated according to steps a) and b) of the method of the invention is dehydrated by an alcohol bath, and then passed through a xylene bath. A first bath in paraffin allows to replace the water previously contained in the skin explant by paraffin.
# Serial sections of a thickness varying from 4 to 5 μm are then made along the entire length of the paraffin block containing the sample.
# as §5
# [8] = tested on: TNFα; assay: TNFα secretion by the InflammaSkin ex vivo model of inflamed skin
Compound,presence of psoriasin [1],"IL-22 secretion ([2]; prophylactic treatment, subcutaneous injection of 50 nM at T0, compared to untreated inflamed biopsy (FIG. 14))","IL-22 secretion ([2]; therapeutic treatment, subcutaneous injection of 50 nM after 3 days of culture, compared to untreated inflamed biopsy (FIG. 14))","integrity and structure of the skin, more particularly the epidermis, and epidermal cell viability ([3]; prophylactic treatment, subcutaneous injection of 50 nM at T0, 7 days of ex vivo culture (FIG. 13))","integrity and structure of the skin, more particularly the epidermis, and epidermal cell viability ([3]; therapeutic treatment, subcutaneous injection of 50 nM after 3 days of culture, 7 days of ex vivo culture (FIG. 13))","IL-17A secretion ([4]; prophylactic treatment, topical 10 μL daily until 7th day of culture, compared to placebo control (FIG. 6A))","IL-17A secretion ([4]; therapeutic treatment, topical from 3 days of culture, daily until 7th day (FIG. 6B))","IL-22 secretion ([5]; prophylactic treatment, topical 10 μL daily until 7th day of culture, compared to placebo control (FIG. 7A))","IL-22 secretion ([5]; therapeutic treatment, topical from 3 days of culture, daily until 7th day (FIG. 7B))","IFNγ secretion ([6]; prophylactic treatment, topical 10 μL daily until 7th day of culture, compared to placebo control (FIG. 8A))","IFNγ secretion ([6]; therapeutic treatment, topical from 3 days of culture, daily until 7th day (FIG. 8B))",histological abnormalities in the epidermis ([7]; after 7 days of culture (FIG. 5 legend)),"integrity and structure of the skin, particularly the epidermis, and viability of epidermal cells ([7]; prophylactic treatment, compared to placebo controls (FIG. 5))","TNFα secretion ([8]; prophylactic treatment, topical 10 μL daily until 7th day of culture, compared to placebo control (FIG. 9A))","TNFα secretion ([8]; therapeutic treatment, topical from 3 days of culture, daily until 7th day (FIG. 9B))"
adalimumab,almost undetectable,strongly inhibited,strongly inhibited,preserved,preserved,,,,,,,,,,
CCC(=O)OCC(=O)[C@@]1(OC(=O)CC)[C@@H](C)C[C@H]2[C@@H]3CCC4=CC(=O)C=C[C@]4(C)[C@@]3(F)[C@@H](O)C[C@@]21C [betamethasone di-propionate],,,,,,strongly inhibited,inhibits IL-17A secretion,strongly inhibited,inhibits IL-22 secretion,strongly inhibited,inhibits IFNγ secretion,total absence of histological abnormalities in the epidermis,preserved,strongly inhibited,strongly inhibited
